Values after ≈ are worked out from the molar mass of the structure shown.

Experimental findings from US20140328814A1, “ANTIMICROBIAL AND […] PROBIOTIC COMPOSITION, FOOD PRODUCT AND DIETARY SUPPLEMENT COMPRISING MICROORGANISM STRAIN LACTOBACILLUS […] TENSIA DSM 21380 AND METHOD FOR SUPPRESSING CONTAMINATING MICROBES IN A FOOD PRODUCT” (Oü Tervisliku Piima Biotehnoloogiate Arenduskeskus …, priority 2008, published 2014) are described below.

Experiment [1] has as its system L. plantarum DSM 21379. The experiment in a line: Antibiotic resistance, E-test MIC, control strain. It is filed as cell-based, Lactobacillus plantarum. The settings on record: E-test strips.
Experiment [2] relates to Lactobacillus plantarum Tensia DSM 21380. Nature of the experiment: Antibiotic resistance, E-test MIC. It is filed as cell-based. The settings on record: E-test strips. The protocol: Method. Lactobacillus plantarum Tensia DSM 21380 was tested using antibiotic strips of the E-test (AB Biodisk, Solna).

For `CC[C@H]1OC(=O)[C@H](C)[C@@H](O[C@H]2C[C@@](C)(OC)[C@@H](O)[C@H](C)O2)[C@H](C)[C@@H](O[C@@H]2O[C@H](C)C[C@H](N(C)C)[C@H]2O)[C@](C)(O)C[C@@H](C)C(=O)[C@H](C)[C@@H](O)[C@]1(C)O` [Erytromycin], in experiment [1], the “MIC Control strain L. plantarum DSM 21379” value was determined as 0.25 µg/mL (≈ 0.341 µM). In addition, the “MIC L. plantarum Tensia DSM 21380” value in experiment [2] was 0.19 µg/mL (≈ 0.259 µM).
The matching figures for Cipro/ofloxacin: 32 µg/mL and 32 µg/mL.
Regarding Gentamicin, the “MIC Control strain L. plantarum DSM 21379” value in experiment [1] worked out at 1 µg/mL. For the same compound, the “MIC L. plantarum Tensia DSM 21380” value in experiment [2] was found to be 1.5 µg/mL.
In the same order, the values of Quinopristin/dalfopristin are 1 µg/mL and 1 µg/mL.
